Experimental findings from patent US7517889B2, “2,6-substituted-4-monosubstitutedamino-pyrimidine as prostaglandin D2 receptor antagonists” (Aventis Pharmaceuticals, Inc., priority 2004, dated 2009) are described below.

Where a name gives a salt, the structure may show the parent alone.

The test has as its target T1, DP receptor (Homo sapiens, UniProt Q13258).
T1 construct: the human cell line LS174T, which expresses the endogenous DP receptor; endogenous in cells; host or cells: LS174T human cell line
T1 sequence (Q13258 1-359): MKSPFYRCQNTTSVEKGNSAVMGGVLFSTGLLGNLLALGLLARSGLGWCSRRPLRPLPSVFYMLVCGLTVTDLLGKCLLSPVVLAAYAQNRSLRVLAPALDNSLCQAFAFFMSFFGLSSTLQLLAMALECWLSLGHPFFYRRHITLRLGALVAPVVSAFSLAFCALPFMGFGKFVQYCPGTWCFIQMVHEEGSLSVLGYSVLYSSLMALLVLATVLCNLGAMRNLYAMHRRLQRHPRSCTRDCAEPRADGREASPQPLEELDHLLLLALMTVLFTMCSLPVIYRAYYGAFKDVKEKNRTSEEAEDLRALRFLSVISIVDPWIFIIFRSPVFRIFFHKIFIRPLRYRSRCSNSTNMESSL
Put plainly: SPA cAMP assay in human LS174 T cells (human DP functional assay). It counts as cell-based. As to conditions: inhibition of PGD2 (15 nM final) stimulated cAMP, LS174T cells expressing endogenous DP receptor. In outline:
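LS174T cells with endogenous DP receptor, 45,000/well seeded overnight, exposed to compounds at 11 points for 15 min at 37 °C in buffer containing IBMX, with PGD2 stimulation.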
In turn, `COc1cccc(-c2cc(NCCc3cccnc3)nc(OC)n2)c1` [Example 43(i), [2-Methoxy-6-(3-methoxy-phenyl)-pyrimidin-4-yl]-(2-pyridin-3-yl-ethyl)-amine hydrochloride] showed an IC50 of 248 nM. This counts as sub-micromolar.

`COc1ccc(CNc2cc(-c3cccc(OC)c3)nc(OC)n2)cc1` [Example 43(k), (4-Methoxy-benzyl-[2-methoxy-6-(3-methoxy-phenyl)-pyrimidin-4-yl]-amine hydrochloride] displayed an IC50 of 1070 nM. On to `COc1cccc(-c2cc(NCCCc3ccccc3)nc(OC)n2)c1` [Example 43(l), [2-Methoxy-6-(3-methoxy-phenyl)-pyrimidin-4-yl]-(3-phenyl-propyl)-amine hydrochloride], for which the IC50 worked out at 1690 nM. Against the preceding molecule, the IC50 is about 1.6-fold higher.

As for `COc1ccc(C[C@H](Nc2cc(-c3cccc(OC)c3)nc(OC)n2)C(=O)O)cc1` [Example 43(n), (2S)-2-[2-Methoxy-6-(3-methoxy-phenyl)-pyrimidin-4-ylamino]-3-(4-methoxy-phenyl)-propionic acid], it took 548 nM to reach half-maximal inhibition (IC50). Consider `COc1ccc(CCNc2cc(-c3nnc(C)o3)nc(OC)n2)cc1` [Example 44, [2-Methoxy-6-(5-methyl-[-1,3,4]oxadiazol-2-yl)-pyrimidin-4-yl]-[2-(4-methoxy-phenyl)-ethyl]-amine], for which half-maximal inhibition (IC50) was put at 55 nM.

`COc1ccc(CCNc2cc(-c3cnco3)nc(OC)n2)cc1` [Example 45, (2-Methoxy-6-oxazol-5-yl-pyrimidin-4-yl)-[2-(4-methoxy-phenyl)-ethyl]-amine] had an IC50 of 7.8 nM. To `COc1nc(NCCc2ccc3c(c2)OC(F)(F)O3)cc(-c2cccnc2)n1` [Example 46(b), [2-(2,2-difluoro-benzo[1,3]dioxol-5-yl)-ethyl]-(2-methoxy-6-pyridin-3-yl-pyrimidin-4-yl)-amine] belongs 212 nM.

As for `COc1nc(NCCc2ccc(OC(F)F)cc2)cc(-c2cccc(NC(C)=O)c2)n1` [Example 46(c), N-(3-{6-[2-(4-Difluoromethoxy-phenyl)-ethylamino]-2-methoxy-pyrimidin-4-yl}-phenyl)-acetamide hydrochloride], it took 4 nM to reach half-maximal inhibition (IC50). The result for `COc1nc(NCCc2ccc(Cl)cc2Cl)cc(-c2cccc(C(C)(C)c3nnn[nH]3)c2)n1` [Example 47, hydrochloride] reads 0.4 nM; that for `COc1nc(NCCc2ccc(Cl)cc2Cl)cc(-c2cccc(C(C)C(=O)O)c2)n1` (centres unmarked) [Example 49(a), 2-(3-{6-[2-(2,4-Dichloro-phenyl)-ethylamino]-2-methoxy-pyrimidin-4-yl}-phenyl)-propionic acid hydrochloride], 1 nM.

In turn, `CCOC(=O)OC(C)OC(=O)C(C)(C)c1cccc(-c2cc(NCCc3ccc(Cl)cc3Cl)nc(OC)n2)c1` (centres unmarked) [Example 50, 2-(3-{6-[2-(2,4-Dichloro-phenyl)-ethylamino]-2-methoxy-pyrimidin-4-yl}-phenyl)-2-methyl-propionic acid 1-ethoxycarbonyloxy-ethyl ester hydrochloride] registered an IC50 of 4 nM. Compared with the last molecule, the IC50 is about 4-fold higher. The molecule `COc1nc(NCCc2ccc(C(F)(F)F)cc2F)cc(-c2ccc3[nH]cc(CC(=O)O)c3c2)n1` [Example 52, (5-{6-[2-(2-Fluoro-4-trifluoromethyl-phenyl)-ethylamino]-2-methoxy-pyrimidin-4-yl}-1H-indol-3-yl)-acetic acid] came in with an IC50 of 0.4 nM. The result for `COc1ccc(CCNc2cc(-c3ccc4cn[nH]c4c3)nc(OC)n2)cc1` [Example 53(b), [6-(1H-Indazol-6-yl)-2-methoxy-pyrimidin-4-yl]-[2-(4-methoxy-phenyl)-ethyl]-amine] reads 0.95 nM; that for `COc1nc(NCCc2c(F)cccc2Cl)cc(-c2cccc(COCC(=O)O)c2)n1` [Example 56, (3-{6-[2-(2-Chloro-6-fluoro-phenyl)-ethylamino]-2-methoxy-pyrimidin-4-yl}-benzyloxy)-acetic acid], 0.6 nM; that for `COc1nc(NCCc2ccc(Cl)cc2Cl)cc(-c2cccc(C(=O)NCC(=O)O)c2)n1` [Example 59, (3-{6-[2-(2,4-Dichloro-phenyl)-ethylamino]-2-methoxy-pyrimidin-4-yl}-benzoylamino)-acetic acid], 0.8 nM. To `CCNC(=O)Oc1cccc(-c2cc(NCCc3ccc(Cl)cc3Cl)nc(OC)n2)c1` [Example 60, Ethyl-carbamic acid 3-{6-[2-(2,4-dichloro-phenyl)-ethylamino]-2-methoxy-pyrimidin-4-yl}-phenyl ester] belongs 0.5 nM; to `CNC(=O)c1ccc(-c2cc(NCCc3ccc(OC)cc3)nc(OC)n2)s1` [Example 62, 5-{2-Methoxy-6-[2-(4-methoxy-phenyl)-ethylamino]-pyrimidin-4-yl}-thiophene-2-carboxylic acid methylamide trifluoroacetate], 0.3 nM; to `COCC(=O)NCCc1cccc(-c2cc(NCCc3ccc(C(F)(F)F)cc3F)nc(OC)n2)c1` [Example 64, N-[2-(3-{6-[2-(2-Fluoro-4-trifluoromethyl-phenyl)-ethylamino]-2-methoxy-pyrimidin-4-yl}-phenyl)-ethyl]-2-methoxy-acetamide], 56 nM. Molecule `COc1nc(NCCc2ccc(C(F)(F)F)cc2F)cc(-c2cccc(CCNC(C)=O)c2)n1` [Example 65, N-[2-(3-{6-[2-(2-Fluoro-4-trifluoromethyl-phenyl)-ethylamino]-2-methoxy-pyrimidin-4-yl}-phenyl)-ethyl]-acetamide hydrochloride] came in with an IC50 of 37 nM. As to `COc1nc(NCC(F)(F)c2ccccc2)cc(-c2cccc(C(C)(C)C(=O)O)c2)n1` [Example 67, 2-{3-[6-(2,2-Difluoro-2-phenyl-ethylamino)-2-methoxy-pyrimidin-4-yl]-phenyl}-2-methyl-propionic acid], the IC50 was 38 nM. As for `COc1nc(NCCc2ccc(OC(F)(F)F)cc2)cc(-c2ccc(F)c(C(C)(C)C(=O)O)c2)n1` [Example 70, 2-(2-Fluoro-5-{2-methoxy-6-[2-(4-trifluoromethoxy-phenyl)-ethylamino]-pyrimidin-4-yl}-phenyl)-2-methyl-propionic acid], half-maximal inhibition (IC50) was put at 193 nM. Against the preceding molecule, the IC50 is about 5.1-fold higher. To `COc1nc(NCc2ccsc2)cc(-c2cccc(C(C)(C)C(=O)O)c2)n1` [Example 71, 2-(3-{2-Methoxy-6-[(thiophen-3-ylmethyl)-amino]-pyrimidin-4-yl}-phenyl)-2-methyl-propionic acid] belongs 393 nM; to `COc1nc(NCCc2ccc(Cl)cc2Cl)cc(N2CCCC(C(=O)O)C2)n1` (centres unmarked) [Example 73, 1-{6-[2-(2,4-Dichloro-phenyl)-ethylamino]-2-methoxy-pyrimidin-4-yl}-piperidine-3-carboxylic acid], 0.8 nM.

Consider `COc1nc(NCCc2ccc(Cl)cc2Cl)cc(-c2cccc(C3(C(=O)O)CCCC3)c2)n1` [Example 74, 1-(3-{6-[2-(2,4-Dichloro-phenyl)-ethylamino]-2-methoxy-pyrimidin-4-yl}-phenyl)-cyclopentanecarboxylic acid hydrochloride], for which half-maximal inhibition (IC50) required 0.5 nM. Molecule `COc1nc(NCCc2ccc(Cl)cc2Cl)cc(-c2cccc(C(=O)OCCN3CCN(C)CC3)c2)n1` [Example 76, 3-{6-[2-(2,4-Dichloro-phenyl)-ethylamino]-2-methoxy-pyrimidin-4-yl}-benzoic acid 2-(4-methyl-piperazin-1-yl)-ethyl ester] showed an IC50 of 7 nM. To `CCOC(=O)c1cccc(-c2cc(NCCc3ccc(Cl)cc3Cl)nc(OC)n2)c1` [Example 77, 3-{6-[2-(2,4-Dichloro-phenyl)-ethylamino]-2-methoxy-pyrimidin-4-yl}-benzoic acid ethyl ester] belongs 149 nM; to `COc1nc(NCCc2ccc(Cl)cc2Cl)cc(-c2cccc(C3(C(=O)O)CCOCC3)c2)n1` [Example 80(a), 4-(3-{6-[2-(2,4-Dichloro-phenyl)-ethylamino]-2-methoxy-pyrimidin-4-yl}-phenyl)-tetrahydro-pyran-4-carboxylic acid], 0.05 nM. For `COc1nc(NCCc2ccc(Cl)cc2Cl)cc(-c2cccc(C3(C(=O)NS(C)(=O)=O)CCOCC3)c2)n1` [Example 80(b), N-[4-(3-{6-[2-(2,4-Dichloro-phenyl)-ethylamino]-2-methoxy-pyrimidin-4-yl}-phenyl)-tetrahydro-pyran-4-carbonyl]-methanesulfonamide], the IC50 was below 1 nM.

For `CCOC(=O)C1(c2cccc(-c3cc(NCCc4ccc(Cl)cc4Cl)nc(OC)n3)c2)CCOCC1` [Example 80(c), 4-(3-{6-[2-(2,4-Dichloro-phenyl)-ethylamino]-2-methoxy-pyrimidin-4-yl}-phenyl)-tetrahydro-pyran-4-carboxylic acid ethyl ester], half-maximal inhibition (IC50) was put at 223 nM.

`COc1nc(NCCc2ccc(Cl)cc2Cl)cc(-c2cccc(C(F)(F)C(=O)O)c2)n1` [Example 81(a), (3-{6-[2-(2,4-Dichloro-phenyl)-ethylamino]-2-methoxy-pyrimidin-4-yl}-phenyl)-difluoro-acetic acid] had an IC50 of 0.02 nM. Turning to `CCS(=O)(=O)NC(=O)C(F)(F)c1cccc(-c2cc(NCCc3ccc(Cl)cc3Cl)nc(OC)n2)c1` [Example 81(b), Ethanesulfonic acid [2-(3-{6-[2-(2,4-dichloro-phenyl)-ethylamino]-2-methoxy-pyrimidin-4-yl}-phenyl)-2,2-difluoro-acetyl]-amide], the IC50 was 0.1 nM. To `COc1nc(NC2CCc3ccccc32)cc(-c2cccc(C(C)(C)C(=O)O)c2)n1` (centres unmarked) [Example 83(a), 2-{3-[6-(Indan-1-ylamino)-2-methoxy-pyrimidin-4-yl]-phenyl}-2-methyl-propionic acid] belongs 83 nM.
